PubChem BioAssay (NCI)
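Cultured in 96-well plates, cells were exposed to test compound for 48 hours across five concentrations. The concentration for full growth arrest is given as TGI.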

Legend:
Assay in all cases: inhibition of tumour cell growth, NCI panel, 48 h
[1] = tested on: NCI-H226 lung
[2] = tested on: SNB-75 CNS
[3] = tested on: U251 CNS
[4] = tested on: MDA-N
[5] = tested on: UACC-257 melanoma
[6] = tested on: NCI/ADR-RES ovarian
[7] = tested on: HCC-2998 colon
[8] = tested on: UACC-62 melanoma
[9] = tested on: RXF 393 renal
[10] = tested on: M14 melanoma
[11] = tested on: SN12C renal
[12] = tested on: T-47D breast
[13] = tested on: SW-620 colon
[14] = tested on: SK-MEL-2 melanoma
[15] = tested on: SNB-78 CNS
[16] = tested on: MOLT-4 leukemia
[17] = tested on: SF-268 CNS
[18] = tested on: HT29 colon
[19] = tested on: SR leukemia

Structure (SMILES) | TGI [1] | TGI [2] | TGI [3] | TGI [4] | TGI [5] | TGI [6] | TGI [7] | TGI [8] | TGI [9] | TGI [10] | TGI [11] | TGI [12] | TGI [13] | TGI [14] | TGI [15] | TGI [16] | TGI [17] | TGI [18] | TGI [19]
CCN(CC)CC(=O)O[C@]1(CC)C(=O)OCc2c1cc1n(c2=O)Cc2cc3ccccc3nc2-1 | 230 nM | 677 nM | 221 nM | 1580 nM | 1050 nM | 165 nM | 1280 nM | 26.1 nM | 564 nM | 318 nM | 1800 nM | 404 nM | 4330 nM | 1420 nM | > 100000 nM | 74.9 nM |  |  | 
Cc1ccc(S(=O)(=O)OC(c2ccc(Cl)cc2Cl)C2OC(=O)c3ccccc32)cc1 (centres undefined) | > 100000 nM |  | > 100000 nM |  |  |  |  | > 100000 nM | > 100000 nM | > 100000 nM | > 100000 nM |  | > 100000 nM | > 100000 nM | > 100000 nM | > 100000 nM | > 100000 nM | > 100000 nM | > 100000 nM
